According to patent US20160039880A1 (priority 2012, published 2016):
≈ marks a conversion by molar mass, not a printed value. Like-named read-outs stand apart in the source and are kept apart here.

Legend:
[1] = Water Solubility Assay (measured in pH 7.8 buffer); format: physicochemical; conditions: kinetic from dmso stock;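 note: precipitation onset detected as rise in absorbance at 650 nm across increasing concentrations, after shaking for 18 h, blank wells receiving DMSO only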
[2] = biological target: Human recombinant cyclophilin A (Cyp A) (Homo sapiens, UniProt P62937); test: Protease-free PPIase assay;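 note: cis to trans isomerization of SUC-AAPF-pNA by 2 nM enzyme, read as absorbance at 330 nm over 300 s at 10 °C, catalytic rate corrected for uncatalyzed background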
Human recombinant cyclophilin A (Cyp A), sequence (P62937 whole entry): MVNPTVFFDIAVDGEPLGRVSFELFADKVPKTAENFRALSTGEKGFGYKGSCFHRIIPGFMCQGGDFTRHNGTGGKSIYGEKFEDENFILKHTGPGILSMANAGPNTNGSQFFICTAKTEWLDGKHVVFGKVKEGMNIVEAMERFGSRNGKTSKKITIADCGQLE

[3] = 35 mM HEPES buffer pH 7.8, 25 °C, aqueous buffer, pH 7.8 buffer, read-out: Water Solubility Assay

Structure (SMILES) | solubility at 18 h ([1]; 25 °C, pH 7.8, aqueous buffer) | Ki [2] | solubility at 18 h [1, 3]
CC[C@H]1NC(=O)[C@@H]([C@H](O)[C@H](C)CCN(C)c2ccccc2)N(C)C(=O)[C@@H](C(C)C)N(C)C(=O)[C@@H](CC(C)C)N(C)C(=O)[C@@H](CC(C)C)N(C)C(=O)[C@H](C)NC(=O)[C@@H](C)NC(=O)[C@@H](CC(C)C)N(C)C(=O)[C@@H](C(C)C)NC(=O)[C@H](CC(C)C)N(C)C(=O)[C@@H](C)N(C)C1=O [Compound DC, [(3R,4R,5S)-4-Hydroxy-3-methyl-5-(methylamino)-1-(methyl-phenyl-amino)-hexanoic acid]^1[(R)-methyl-Sar]^3 cyclosporin A] | 10 to 25 µM (≈ 13 to 32.4 µg/mL) | 6 nM | –
CC[C@H]1NC(=O)[C@@H]([C@H](O)[C@H](C)CCN(C)CC(C)C#N)N(C)C(=O)[C@@H](C(C)C)N(C)C(=O)[C@@H](CC(C)C)N(C)C(=O)[C@@H](CC(C)C)N(C)C(=O)[C@H](C)NC(=O)[C@@H](C)NC(=O)[C@@H](CC(C)C)N(C)C(=O)[C@@H](C(C)C)NC(=O)[C@H](CC(C)C)N(C)C(=O)[C@@H](C)N(C)C1=O (stereo partly drawn) [Compound DK, [(3R,4R,5S)-1-({2-Cyano-propyl}-methyl-amino)-4-hydroxy-3-methyl-5-(methylamino)-hexanoic acid]^1[(R)-methyl-Sar]^3 cyclosporin A] | > 100 µM | 13 nM | –
CC[C@H]1NC(=O)[C@@H]([C@H](O)[C@H](C)CCN2CCCC2)N(C)C(=O)[C@@H](C(C)C)N(C)C(=O)[C@@H](CC(C)C)N(C)C(=O)[C@@H](CC(C)C)N(C)C(=O)[C@H](C)NC(=O)[C@@H](C)NC(=O)C(CC(C)C)N(C)C(=O)[C@@H](C(C)C)NC(=O)[C@H](CC(C)C)N(C)C(=O)[C@@H](C)N(C)C1=O (stereo partly drawn) [Compound EF, [(3R,4R,5S)-4-Hydroxy-3-methyl-5-(methylamino)-1-(pyrrolidin-1-yl)-hexanoic acid]^1[(R)-methyl-Sar]^3 cyclosporin A] | – | 40 nM | –
CC[C@H]1NC(=O)[C@@H]([C@H](O)[C@H](C)CCCCN2CCOCC2)N(C)C(=O)[C@@H](C(C)C)N(C)C(=O)[C@@H](CC(C)C)N(C)C(=O)[C@@H](CC(C)C)N(C)C(=O)[C@H](C)NC(=O)[C@@H](C)NC(=O)[C@@H](CC(C)C)N(C)C(=O)[C@@H](C(C)C)NC(=O)[C@H](CC(C)C)N(C)C(=O)[C@@H](C)N(C)C1=O [Compound KG, [(5R,6R,7S)-6-hydroxy-5-methyl-7-(methylamino)-1-(N-morpholino)-octanoic acid]^1[(R)-methyl-Sar]^3 cyclosporin A] | – | 3.8 nM | –
CC[C@H]1NC(=O)[C@@H]([C@H](O)[C@H](C)CCN2CCCCC2)N(C)C(=O)[C@@H](C(C)C)N(C)C(=O)[C@@H](CC(C)C)N(C)C(=O)[C@@H](CC(C)C)N(C)C(=O)[C@H](C)NC(=O)[C@@H](C)NC(=O)C(CC(C)C)N(C)C(=O)[C@@H](C(C)C)NC(=O)[C@H](CC(C)C)N(C)C(=O)[C@@H](C)N(C)C1=O (stereo partly drawn) [Compound EA, [(3R,4R,5S)-4-Hydroxy-3-methyl-5-(methylamino)-1-(piperidin-1-yl)-hexanoic acid]^1[(R)-methyl-Sar]^3 cyclosporin A] | – | 22 nM | –
CC[C@H]1NC(=O)[C@@H]([C@H](O)[C@H](C)CCCCN(C)C)N(C)C(=O)[C@@H](C(C)C)N(C)C(=O)[C@@H](CC(C)C)N(C)C(=O)[C@@H](CC(C)C)N(C)C(=O)[C@H](C)NC(=O)[C@@H](C)NC(=O)[C@@H](CC(C)C)N(C)C(=O)[C@@H](C(C)C)NC(=O)[C@H](CC(C)C)N(C)C(=O)[C@@H](C)N(C)C1=O [Compound KF, [(5R,6R,7S)-1-(dimethylamino)-6-hydroxy-5-methyl-7-(methylamino)-octanoic acid]^1[(R)-methyl-Sar]^3 cyclosporin A] | – | 7.8 nM | –

Results, then the compound that gave them:

solubility at 18 h ([1]; 25 °C, pH 7.8, aqueous buffer) | Ki [2] | solubility at 18 h [1, 3] | Structure (SMILES)
– | 16.2 nM | – | CC[C@H]1NC(=O)[C@@H]([C@H](O)[C@H](C)CCN(C)Cc2ccc(F)cn2)N(C)C(=O)[C@@H](C(C)C)N(C)C(=O)[C@@H](CC(C)C)N(C)C(=O)[C@@H](CC(C)C)N(C)C(=O)[C@H](C)NC(=O)[C@@H](C)NC(=O)[C@@H](CC(C)C)N(C)C(=O)[C@@H](C(C)C)NC(=O)[C@H](CC(C)C)N(C)C(=O)[C@@H](C)N(C)C1=O [Compound DP, [(3R,4R,5S)-4-Hydroxy-3-methyl-5-(methylamino)-1-({5-fluoro-pyridin-2-ylmethyl}-methylamino)-hexanoic acid]^1[(R)-methyl-Sar]^3 cyclosporin A]
– | 4.9 nM | 75 to 100 µM (≈ 98.3 to 131 µg/mL) | CC[C@H]1NC(=O)[C@@H]([C@H](O)[C@H](C)CCN(C)Cc2ccccn2)N(C)C(=O)[C@@H](C(C)C)N(C)C(=O)[C@@H](CC(C)C)N(C)C(=O)[C@@H](CC(C)C)N(C)C(=O)[C@H](C)NC(=O)[C@@H](C)NC(=O)[C@@H](CC(C)C)N(C)C(=O)[C@@H](C(C)C)NC(=O)[C@H](CC(C)C)N(C)C(=O)[C@@H](C)N(C)C1=O [Compound DA, [(3R,4R,5S)-4-Hydroxy-3-methyl-5-(methylamino)-1-({pyridin-2-ylmethyl}-methylamino)-hexanoic acid]^1[(R)-methyl-Sar]^3 cyclosporin A]
– | 9.1 nM | > 100 µM | CC[C@H]1NC(=O)[C@@H]([C@H](O)[C@H](C)CCN(C)Cc2cnccn2)N(C)C(=O)[C@@H](C(C)C)N(C)C(=O)[C@@H](CC(C)C)N(C)C(=O)[C@@H](CC(C)C)N(C)C(=O)[C@H](C)NC(=O)[C@@H](C)NC(=O)[C@@H](CC(C)C)N(C)C(=O)[C@@H](C(C)C)NC(=O)[C@H](CC(C)C)N(C)C(=O)[C@@H](C)N(C)C1=O [Compound DH, [(3R,4R,5S)-4-Hydroxy-3-methyl-5-(methylamino)-1-({pyrazin-2-ylmethyl}-methylamino)-hexanoic acid]^1[(R)-methyl-Sar]^3 cyclosporin A]
– | 11 nM | – | CC[C@H]1NC(=O)[C@@H]([C@H](O)[C@H](C)CCN(C)Cc2ccc(Cl)cn2)N(C)C(=O)[C@@H](C(C)C)N(C)C(=O)[C@@H](CC(C)C)N(C)C(=O)[C@@H](CC(C)C)N(C)C(=O)[C@H](C)NC(=O)[C@@H](C)NC(=O)[C@@H](CC(C)C)N(C)C(=O)[C@@H](C(C)C)NC(=O)[C@H](CC(C)C)N(C)C(=O)[C@@H](C)N(C)C1=O [Compound DQ, [(3R,4R,5S)-4-Hydroxy-3-methyl-5-(methylamino)-1-({5-chloro-pyridin-2-ylmethyl}-methylamino)-hexanoic acid]^1[(R)-methyl-Sar]^3 cyclosporin A]
– | 8.4 nM | – | CC[C@H]1NC(=O)[C@@H]([C@H](O)[C@H](C)CCN(C)Cc2ncccc2C(F)(F)F)N(C)C(=O)[C@@H](C(C)C)N(C)C(=O)[C@@H](CC(C)C)N(C)C(=O)[C@@H](CC(C)C)N(C)C(=O)[C@H](C)NC(=O)[C@@H](C)NC(=O)[C@@H](CC(C)C)N(C)C(=O)[C@@H](C(C)C)NC(=O)[C@H](CC(C)C)N(C)C(=O)[C@@H](C)N(C)C1=O [Compound DR, [(3R,4R,5S)-4-Hydroxy-3-methyl-5-(methylamino)-1-({3-trifluoromethyl-pyridin-2-ylmethyl}-methylamino)-hexanoic acid]^1[(R)-methyl-Sar]^3 cyclosporin A]
– | 23 nM | – | CC[C@H]1NC(=O)[C@@H]([C@H](O)[C@H](C)CCN(C)Cc2cnn(C)c2)N(C)C(=O)[C@@H](C(C)C)N(C)C(=O)[C@@H](CC(C)C)N(C)C(=O)[C@@H](CC(C)C)N(C)C(=O)[C@H](C)NC(=O)[C@@H](C)NC(=O)[C@@H](CC(C)C)N(C)C(=O)[C@@H](C(C)C)NC(=O)[C@H](CC(C)C)N(C)C(=O)[C@@H](C)N(C)C1=O [Compound DM, [(3R,4R,5S)-4-Hydroxy-3-methyl-5-(methylamino)-1-({1-methyl-1H-pyrazol-4-ylmethyl}-methylamino)-hexanoic acid]^1[(R)-methyl-Sar]^3 cyclosporin A]
